Laboratory results: patent US9770461B2, “Tailored glycopolymers as anticoagulant heparin mimetics” (California Institute of Technology, priority 2013, dated 2017)

Tests used:
Type in all cases: biochemical
[1] = tested on: citrated human plasma; experiment: Prothrombin time (PT) analysis; conditions: 300 μL of 150 μg/mL sample in 2.7 mL citrated human plasma
Description: Samples were prepared by mixing 300 μL of the heparin standard or glycopolymer (150 μg/mL) in 0.9% saline with 2.7 mL citrated human plasma. The tube was inverted 3 times to mix the sample thoroughly. Samples were analyzed by the UCLA Clinical & Translational Research Laboratory using a Sysmex® CA-1500 Coagulation Analyzer (Siemens AG, Erlangen, Germany). Clotting time in the absence of an anticoagulant was determined using 0.9% saline solution water (300 μL). Each clotting assay was performed in triplicate.

[2] = tested on: citrated human plasma; experiment: Activated partial thromboplastin time (APTT) analysis
Description: Plasma/anticoagulant samples were prepared by mixing 300 μL of the heparin standard or glycopolymer (150 μg/mL) in 0.9% saline and 2.7 mL of citrated human plasma. The tube was inverted 3 times to mix the sample thoroughly. Samples were analyzed by the UCLA Clinical & Translational Research Laboratory using a Sysmex® CA-1500 Coagulation Analyzer (Siemens AG, Erlangen, Germany). Clotting time in the absence of an anticoagulant was determined using 0.9% saline solution water (300 μL). Each clotting assay was performed in triplicate.

[3] = tested on: Factor Xa (FXa); experiment: Chromogenic anti-FXa assay in the presence of antithrombin III; conditions: with ATIII
Description: The BIOPHEN Heparin Anti-Xa (2 stages) USP/EP kit (Aniara) was used to determine factor Xa activity. This chromogenic anti-Xa method for measuring homogeneous heparin in purified systems is in compliance with Pharmacopoeias (USP, EP) and FDA guidelines. All reagents were prepared according to manufacturer's instructions and incubated at 37° C. for 15 min. Varying concentrations of heparin (Neoparin) or glycopolymers 1-4 (40 μL) and antithrombin (40 μL) were added to a microcentrifuge tube, mixed, and incubated at 37° C. for 2 min. Factor Xa (40 μL) was added to the solution, incubated at 37° C. for exactly 2 min, and then the factor Xa chromogenic substrate (40 μL) was added. After 2 min, the reaction was quenched with citric acid (20 g/L, 240 μL), and the absorbance was measured at 405 nm. The sample blank was obtained by mixing the reagents in reverse order, and the resulting value was deducted from the absorbance values measured in the assay.
All reagents were prepared according to the manufacturer's instructions and incubated at 37° C. for 15 min. […] Absorbance at 405 nm was measured on a Uvikon XL spectrophotometer. […] The sample blank value was deducted from the absorbance measured for the corresponding assay.

## CO[C@H]1O[C@H](COS(=O)(=O)O)[C@@H](O[C@@H]2O[C@@H](C(=O)O)[C@@H](O[C@H]3O[C@H](COS(=O)(=O)O)[C@@H](O[C@@H]4O[C@H](C(=O)O)[C@@H](O[C@H]5O[C@H](COS(=O)(=O)O)[C@@H](O)[C@H](O)[C@H]5NS(=O)(=O)O)[C@H](O)[C@H]4O)[C@H](OS(=O)(=O)O)[C@H]3NS(=O)(=O)O)[C@H](O)[C@H]2OS(=O)(=O)O)[C@H](O)[C@H]1NS(=O)(=O)O [Arixtra]
[1]
  PT: 15.1 ± 0.3 s
[2]; 300 μL of 150 μg/mL sample in 2.7 mL citrated human plasma
  APTT: 78.3 ± 0.4 s
[2]; compared to saline control
  effect on APTT (in words): increased only the APTT
[3]
  IC50: 11 ± 0.1 nM
